Results from US11572590B2, “Methods for evaluating tumor cell spheroids using 3D microfluidic cell culture device” (Dana-Farber Cancer Institute, Inc., priority 2017, dated 2023).
Like-named read-outs stand apart in the source and are kept apart here.

Key:
Experiment in all cases: SelectScreen Kinase Profiling, single point inhibition and IC50 for off-target kinases
Format in all cases: biochemical
off-target kinases [1] = target: off-target kinases (Homo sapiens, UniProt O43353); details: RIPK2, LanthaScreen Binding
off-target kinases (Homo sapiens, UniProt O43353), sequence (O43353 whole entry): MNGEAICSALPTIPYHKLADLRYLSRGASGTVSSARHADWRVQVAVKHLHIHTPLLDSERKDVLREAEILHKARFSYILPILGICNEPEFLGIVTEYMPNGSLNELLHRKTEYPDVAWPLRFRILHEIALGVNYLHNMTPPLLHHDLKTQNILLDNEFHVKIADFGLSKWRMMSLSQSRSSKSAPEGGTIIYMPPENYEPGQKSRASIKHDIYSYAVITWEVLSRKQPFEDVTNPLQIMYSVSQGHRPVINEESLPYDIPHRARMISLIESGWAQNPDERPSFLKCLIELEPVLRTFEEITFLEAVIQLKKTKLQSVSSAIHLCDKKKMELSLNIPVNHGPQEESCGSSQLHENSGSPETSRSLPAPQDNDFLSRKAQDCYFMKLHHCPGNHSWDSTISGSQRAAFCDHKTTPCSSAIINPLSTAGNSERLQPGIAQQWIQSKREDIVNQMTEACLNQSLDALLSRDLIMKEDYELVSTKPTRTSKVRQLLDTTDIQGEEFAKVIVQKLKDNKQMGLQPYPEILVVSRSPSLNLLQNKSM

off-target kinases [2] = target: off-target kinases (Homo sapiens, UniProt P00519, Q252H); details: ABL1 Q252H, LanthaScreen Binding
off-target kinases [3] = target: off-target kinases (Homo sapiens, UniProt P10721, T670I); details: KIT T670I (mutant), ZLYTE, ATP Km app
off-target kinases (Homo sapiens, UniProt P10721, T670I), sequence (P10721 26-976 T670I): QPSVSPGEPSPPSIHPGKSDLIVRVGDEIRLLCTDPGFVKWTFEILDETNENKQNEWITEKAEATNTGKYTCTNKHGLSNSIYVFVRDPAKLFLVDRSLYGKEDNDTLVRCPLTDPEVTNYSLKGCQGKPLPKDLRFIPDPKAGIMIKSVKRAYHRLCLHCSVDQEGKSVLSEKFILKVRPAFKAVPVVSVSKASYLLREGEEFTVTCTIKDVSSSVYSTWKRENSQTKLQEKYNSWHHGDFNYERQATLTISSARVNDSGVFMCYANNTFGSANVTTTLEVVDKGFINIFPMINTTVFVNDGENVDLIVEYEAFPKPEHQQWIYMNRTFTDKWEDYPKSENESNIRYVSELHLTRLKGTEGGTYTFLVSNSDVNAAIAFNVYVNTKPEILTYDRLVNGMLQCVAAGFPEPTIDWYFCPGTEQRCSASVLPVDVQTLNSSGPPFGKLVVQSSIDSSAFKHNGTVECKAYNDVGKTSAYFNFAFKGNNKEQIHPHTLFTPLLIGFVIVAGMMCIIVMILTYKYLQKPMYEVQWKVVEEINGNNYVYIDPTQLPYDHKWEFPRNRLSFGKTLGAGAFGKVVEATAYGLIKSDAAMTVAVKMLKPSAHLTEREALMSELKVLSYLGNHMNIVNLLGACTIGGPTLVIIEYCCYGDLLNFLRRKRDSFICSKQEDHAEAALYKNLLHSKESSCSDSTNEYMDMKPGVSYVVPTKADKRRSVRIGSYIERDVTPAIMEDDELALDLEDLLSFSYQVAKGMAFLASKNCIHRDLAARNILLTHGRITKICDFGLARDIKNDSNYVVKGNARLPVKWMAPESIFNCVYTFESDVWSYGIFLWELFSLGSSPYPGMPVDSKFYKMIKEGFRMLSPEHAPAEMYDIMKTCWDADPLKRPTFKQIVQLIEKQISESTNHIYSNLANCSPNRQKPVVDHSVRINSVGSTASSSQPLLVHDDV

off-target kinases [4] = target: off-target kinases (Homo sapiens, UniProt P10721, V654A); details: KIT V654A (mutant), LanthaScreen Binding
off-target kinases (Homo sapiens, UniProt P10721, V654A), sequence (P10721 26-976 V654A): as the sequence (P10721 26-976 T670I) above, with V629A, I645T counted along it

off-target kinases [5] = target: off-target kinases (Homo sapiens, UniProt P16591); details: FER, ZLYTE, ATP Km app
off-target kinases [6] = target: off-target kinases (Homo sapiens, UniProt P23458); details: JAK1, ZLYTE, ATP Km app
off-target kinases (Homo sapiens, UniProt P23458), sequence (P23458 whole entry): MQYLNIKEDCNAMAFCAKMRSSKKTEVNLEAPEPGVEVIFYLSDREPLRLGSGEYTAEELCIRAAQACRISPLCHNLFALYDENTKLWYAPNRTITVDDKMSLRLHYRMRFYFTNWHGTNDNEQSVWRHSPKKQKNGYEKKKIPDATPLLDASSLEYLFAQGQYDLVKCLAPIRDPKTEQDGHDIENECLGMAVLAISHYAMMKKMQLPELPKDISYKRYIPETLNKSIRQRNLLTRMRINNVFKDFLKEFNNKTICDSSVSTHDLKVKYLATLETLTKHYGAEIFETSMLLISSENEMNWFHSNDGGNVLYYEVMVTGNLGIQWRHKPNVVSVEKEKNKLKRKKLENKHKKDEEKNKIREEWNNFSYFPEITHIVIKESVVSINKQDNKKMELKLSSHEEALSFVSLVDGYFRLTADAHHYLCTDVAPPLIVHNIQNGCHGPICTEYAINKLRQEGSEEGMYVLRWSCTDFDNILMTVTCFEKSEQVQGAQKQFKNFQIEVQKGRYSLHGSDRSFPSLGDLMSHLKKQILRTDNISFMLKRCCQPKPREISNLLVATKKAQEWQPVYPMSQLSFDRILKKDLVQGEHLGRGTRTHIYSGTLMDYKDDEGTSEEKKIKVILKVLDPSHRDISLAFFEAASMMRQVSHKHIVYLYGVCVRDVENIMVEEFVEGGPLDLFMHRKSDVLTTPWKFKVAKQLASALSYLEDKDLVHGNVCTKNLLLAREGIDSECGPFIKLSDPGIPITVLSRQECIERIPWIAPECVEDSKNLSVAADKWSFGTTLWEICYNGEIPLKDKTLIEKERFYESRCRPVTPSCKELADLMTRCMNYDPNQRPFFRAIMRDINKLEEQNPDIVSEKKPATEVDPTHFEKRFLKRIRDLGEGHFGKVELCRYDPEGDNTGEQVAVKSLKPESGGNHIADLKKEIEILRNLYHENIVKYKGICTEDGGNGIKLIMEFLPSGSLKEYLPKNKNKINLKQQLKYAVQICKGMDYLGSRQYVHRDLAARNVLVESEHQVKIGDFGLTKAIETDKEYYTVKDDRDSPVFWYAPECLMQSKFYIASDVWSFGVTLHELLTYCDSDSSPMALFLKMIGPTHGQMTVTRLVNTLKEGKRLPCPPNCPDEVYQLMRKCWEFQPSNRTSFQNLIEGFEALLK

off-target kinases [7] = target: off-target kinases (Homo sapiens, UniProt P43250); details: GRK6, ZLYTE, ATP Km app
off-target kinases (Homo sapiens, UniProt P43250), sequence (P43250 whole entry): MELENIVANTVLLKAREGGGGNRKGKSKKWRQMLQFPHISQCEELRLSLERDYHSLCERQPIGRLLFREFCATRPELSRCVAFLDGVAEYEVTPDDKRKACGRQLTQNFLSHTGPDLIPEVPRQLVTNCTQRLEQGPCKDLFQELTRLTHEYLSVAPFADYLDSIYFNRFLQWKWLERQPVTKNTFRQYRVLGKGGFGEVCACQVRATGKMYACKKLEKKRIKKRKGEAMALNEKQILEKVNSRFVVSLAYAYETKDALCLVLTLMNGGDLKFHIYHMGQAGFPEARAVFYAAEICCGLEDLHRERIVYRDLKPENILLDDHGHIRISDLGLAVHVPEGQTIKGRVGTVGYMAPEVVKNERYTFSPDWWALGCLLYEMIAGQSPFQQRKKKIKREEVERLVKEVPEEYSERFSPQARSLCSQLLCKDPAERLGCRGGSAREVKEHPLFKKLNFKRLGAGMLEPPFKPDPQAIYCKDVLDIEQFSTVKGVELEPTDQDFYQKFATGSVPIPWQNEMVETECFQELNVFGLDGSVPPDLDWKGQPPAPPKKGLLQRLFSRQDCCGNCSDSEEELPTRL

off-target kinases [8] = target: off-target kinases (Homo sapiens, UniProt P43405); details: SYK, 1000 μM, ATP Km app, ZLYTE
off-target kinases [9] = target: off-target kinases (Homo sapiens, UniProt P53350); details: PLK1, ZLYTE, ATP Km app
off-target kinases (Homo sapiens, UniProt P53350), sequence (P53350 whole entry): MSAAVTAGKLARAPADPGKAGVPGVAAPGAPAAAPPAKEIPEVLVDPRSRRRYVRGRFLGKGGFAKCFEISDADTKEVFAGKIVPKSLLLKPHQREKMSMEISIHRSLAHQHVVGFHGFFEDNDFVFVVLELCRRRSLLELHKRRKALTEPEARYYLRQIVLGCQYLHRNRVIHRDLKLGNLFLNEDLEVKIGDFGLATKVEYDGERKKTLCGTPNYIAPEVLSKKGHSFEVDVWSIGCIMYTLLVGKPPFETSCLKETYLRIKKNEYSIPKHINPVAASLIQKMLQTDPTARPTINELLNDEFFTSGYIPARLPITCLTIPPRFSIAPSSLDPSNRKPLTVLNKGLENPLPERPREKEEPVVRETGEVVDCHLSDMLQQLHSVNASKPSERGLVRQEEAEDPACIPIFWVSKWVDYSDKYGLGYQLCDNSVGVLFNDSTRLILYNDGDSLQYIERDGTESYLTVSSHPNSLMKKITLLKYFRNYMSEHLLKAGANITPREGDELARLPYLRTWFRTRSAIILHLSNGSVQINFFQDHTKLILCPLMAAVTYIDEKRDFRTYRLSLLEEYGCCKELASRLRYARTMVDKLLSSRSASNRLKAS

off-target kinases [10] = target: off-target kinases (Homo sapiens, UniProt Q9BYT3); details: STK33, LanthaScreen Binding
off-target kinases (Homo sapiens, UniProt Q9BYT3), sequence (Q9BYT3 whole entry): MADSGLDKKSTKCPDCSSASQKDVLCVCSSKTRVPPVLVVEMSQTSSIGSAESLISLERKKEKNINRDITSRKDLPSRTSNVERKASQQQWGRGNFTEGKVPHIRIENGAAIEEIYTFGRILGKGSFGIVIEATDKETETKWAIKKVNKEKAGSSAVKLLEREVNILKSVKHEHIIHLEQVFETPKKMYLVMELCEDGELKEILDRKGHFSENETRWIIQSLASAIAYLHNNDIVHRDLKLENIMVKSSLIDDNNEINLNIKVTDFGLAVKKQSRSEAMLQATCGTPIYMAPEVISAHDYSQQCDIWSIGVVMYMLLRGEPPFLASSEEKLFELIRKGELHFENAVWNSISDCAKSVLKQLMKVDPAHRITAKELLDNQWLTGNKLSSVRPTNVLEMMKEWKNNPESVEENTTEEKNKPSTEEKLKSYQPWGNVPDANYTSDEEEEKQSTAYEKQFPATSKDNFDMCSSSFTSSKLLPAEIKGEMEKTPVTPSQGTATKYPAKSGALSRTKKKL

off-target kinases [11] = target: off-target kinases (Homo sapiens, UniProt Q9UQM7)
off-target kinases (Homo sapiens, UniProt Q9UQM7), sequence (Q9UQM7 whole entry): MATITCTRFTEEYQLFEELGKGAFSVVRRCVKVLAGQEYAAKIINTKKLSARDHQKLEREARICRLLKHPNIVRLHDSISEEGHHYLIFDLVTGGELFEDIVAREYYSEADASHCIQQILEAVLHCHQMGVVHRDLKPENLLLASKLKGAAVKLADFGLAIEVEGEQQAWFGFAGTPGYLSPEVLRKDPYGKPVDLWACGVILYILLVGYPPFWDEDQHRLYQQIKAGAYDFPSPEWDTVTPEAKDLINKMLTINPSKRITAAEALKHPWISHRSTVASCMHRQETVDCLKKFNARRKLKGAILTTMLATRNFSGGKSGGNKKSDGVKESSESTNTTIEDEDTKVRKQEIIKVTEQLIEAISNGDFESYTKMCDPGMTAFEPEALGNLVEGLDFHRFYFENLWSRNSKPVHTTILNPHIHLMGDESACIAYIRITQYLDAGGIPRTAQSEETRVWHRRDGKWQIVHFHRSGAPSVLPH

N#Cc1cc(-c2ncnc(Nc3ccc(N4CCN(C5COC5)CC4)cc3)n2)ccc1OC1CCOCC1 [Compound 1, 5-(4-((4-(4-(oxetan-3-yl)piperazin-1-yl)phenyl)amino)-1,3,5-triazin-2-yl)-2-((tetrahydro-2H-pyran-4-yl)oxy)benzonitrile]
inhibition (off-target kinases [1]; read-out: % Inhibition 1): 84%
inhibition (off-target kinases [1]; read-out: % Inhibition 2): 86%
inhibition (off-target kinases [1]; read-out: % Inhibition Avg): 85%
inhibition (off-target kinases [2]; read-out: % Inhibition 1): 52%
inhibition (off-target kinases [2]; read-out: % Inhibition 2): 41%
inhibition (off-target kinases [2]; read-out: % Inhibition Avg): 46%
inhibition (off-target kinases [3]; read-out: % Inhibition 1): 6%
inhibition (off-target kinases [3]; read-out: % Inhibition 2): 7%
inhibition (off-target kinases [3]; read-out: % Inhibition Avg): 6%
inhibition (off-target kinases [4]; read-out: % Inhibition 1): 7%
inhibition (off-target kinases [4]; read-out: % Inhibition 2): 10%
inhibition (off-target kinases [4]; read-out: % Inhibition Avg): 9%
inhibition (off-target kinases [5]; read-out: % Inhibition 1): 4%
inhibition (off-target kinases [5]; read-out: % Inhibition 2): 9%
inhibition (off-target kinases [5]; read-out: % Inhibition Avg): 7%
inhibition (off-target kinases [6]; read-out: % Inhibition 1): 11%
inhibition (off-target kinases [6]; read-out: % Inhibition 2): 10%
inhibition (off-target kinases [6]; read-out: % Inhibition Avg): 10%
inhibition (off-target kinases [7]; read-out: % Inhibition 1): 2%
inhibition (off-target kinases [7]; read-out: % Inhibition 2): 2%
inhibition (off-target kinases [7]; read-out: % Inhibition Avg): 2%
inhibition at 1000 µM (off-target kinases [8]; read-out: % Inhibition 1): 44%
inhibition at 1000 µM (off-target kinases [8]; read-out: % Inhibition 2): 49%
inhibition at 1000 µM (off-target kinases [8]; read-out: % Inhibition Avg): 46%
inhibition (off-target kinases [9]; read-out: % Inhibition 1): 12%
inhibition (off-target kinases [9]; read-out: % Inhibition 2): 9%
inhibition (off-target kinases [9]; read-out: % Inhibition Avg): 11%
inhibition (off-target kinases [10]; read-out: % Inhibition 1): 59%
inhibition (off-target kinases [10]; read-out: % Inhibition 2): 55%
inhibition (off-target kinases [10]; read-out: % Inhibition Avg): 57%
inhibition (off-target kinases [11]; CAMK2A (CaMKII alpha), ZLYTE, ATP Km app, read-out: % Inhibition 1): 4%
inhibition (off-target kinases [11]; CAMK2A (CaMKII alpha), ZLYTE, ATP Km app, read-out: % Inhibition Avg): 2%
inhibition (off-target kinases [11]; read-out: % Inhibition 2): 0%
